Like-named read-outs stand apart in the source and are kept apart here.
Key:
[1] = test system: HCT116-MTAP-KO cells (HCT116 MTAP null); experiment: Proliferation inhibition of HCT116 MTAP-KO cells in vitro (CellTiter Glo); format: cell-based; details: 6 days, 9 concentrations starting from 3 μM, read-out: Cell proliferation inhibition rate HCT116 MTAP null IC50 (nm)
Description: (§1) Biological Test Example 2 Proliferation Inhibition of HCT116 and HCT116 MTAP-KO Cells in Vitro
(§2) HCT116 cell line was purchased from the Chinese Academy of Sciences Cell Bank, and the MTAP gene was knocked out by CRISPR/Cas9 technology to obtain HCT116-MTAP-KO cell line.
(§3) McCoy's 5A medium (Gibco, catalog No. 16600082), fetal bovine serum (Gibco, catalog No. 10099141C), penicillin-streptomycin double antibody (Gibco, catalog No. 15140122), pancreatic enzyme (Gibco, catalog No. 25200056), CellTiter Glo assay kit (Promega, catalog No. G7572), 384-well transparent flat-bottomed black walled cell culture plate (Corning, catalog No. 3764), ultra micro sampler (Tecan, catalog No.D300e), Multimode reader (Biotek, catalog No. SynergyHTX)
(§4) 1. Cell culture: HCT116 and HCT116-MTAP-KO cells were cultured in McCoy'5A medium+10% fetal bovine serum+1% penicillin-streptomycin double antibody; to ensure that they were always in the logarithmic growth phase and the cell viability greater than 95%.
(§5) 2. Compound concentration gradient preparation: The compound to be tested was added to a 384-well plate using an ultra micro sampler, starting from 30 μM (HCT116 cells) or 3 μM (HCT116-MTAP-KO cells), and diluted with DMSO at 3 times for a total of 9 concentrations and set up three duplicate wells.
(§6) 3. Treatment of cells with compounds: Trypsin-digested HCT116 or HCT116-MTAP-KO cell suspension was added to the 384-well plates spotted with the compounds to be tested at 40 μL per well, i.e., 100 cells per well, and the final concentration of DMSO was 0.4%. The cell culture plate was incubated at 37° C. in a 5% CO2 incubator for 6 days.
(§7) 4. Detection: 20 μL of CellTiter Glo reagent was added to each well of the cell culture plate and incubated at room temperature for 30 minutes. A multimode reader was used to detect the luminescence signal at […].
(§8) The data was fitted with GraphPad Prism 8.0 software using a four parameter inhibitor-reaction model to obtain the IC50 value (half inhibitory concentration) of the test compounds.

HCT116 MTAP WT cells = experiment: Proliferation inhibition of HCT116 cells in vitro (CellTiter Glo); format: cell-based; details: 6 days, 9 concentrations starting from 30 μM, read-out: Cell proliferation inhibition rate HCT116 MTAP WT IC50 (nm)
Description: as §1, §2, §3, §4, §5, §6, §7, §8

IC50 ([1]; HCT116-MTAP null, 144 h) | IC50 (HCT116 MTAP WT cells; Homo sapiens, HCT-116, 144 h) | IC50 [1] | IC50 (HCT116 MTAP WT cells) | SMILES
< 0.1 µM | 1 to 10 µM |  |  | COc1ccc(C2COCC(C)N2C(=O)c2cc3c(cc2F)nc(N)c2cnc(C)n23)nn1 (centres unmarked) [Example 271]
0.1 to 1 µM | 1 to 10 µM |  |  | COCCOc1ccc(CN(C(=O)c2cc3c(cc2F)nc(N)c2cnc(C)n23)c2cn(C)nc2C)nc1 [Example 152]
< 0.1 µM | 1 to 10 µM |  |  | Cc1c(N(Cc2ccc(C(F)(F)F)cn2)C(=O)c2cc3c(cc2F)nc(N)c2cnc(C)n23)cnn1C [Example 118]
< 0.1 µM | 1 to 10 µM |  |  | Cc1ncc2c(N)nc3cc(F)c(C(=O)N(Cc4ccc(OC5CC5)nn4)c4ccnn4C)cc3n12 [Example 215]
0.1 to 1 µM | 1 to 10 µM |  |  | Cc1ncn2c1c(N)nc1ccc(C(=O)N(Cc3nc(N4CCOCC4)cs3)CC(C)C)cc12 [Example 301]
1 to 10 µM | 1 to 10 µM |  |  | Cc1ncc2c(N)nc3cc(F)c(C(=O)N(Cc4cn5ccccc5n4)C4CCN(C)C4)cc3n12 (centres unmarked) [Example 65]
< 0.1 µM | 1 to 10 µM |  |  | Cc1ncn2c1c(N)nc1ccc(C(=O)N(CC(C)C)C(C)c3nc(-c4ccccn4)cs3)cc12 (centres unmarked) [Example 299]
0.1 to 1 µM | 1 to 10 µM |  |  | Cc1nn(C)cc1N(Cc1ccc(C(F)(F)F)cn1)C(=O)c1ccc2nc(N)c3c(C)nc(C)n3c2c1 [Example 190]
< 0.1 µM | 1 to 10 µM |  |  | Cc1ncn2c1c(N)nc1cc(F)c(C(=O)N3C(C)COCC3c3ccc(C(F)(F)F)cc3)cc12 (centres unmarked) [Example 282]
< 0.1 µM | 0.1 to 1 µM |  |  | CCn1cc(N(Cc2ccc(OC3CC3)cn2)C(=O)c2cc3c(cc2F)nc(N)c2c(C)ncn23)c(C)n1 [Example 177]
< 0.1 µM | 1 to 10 µM |  |  | Cc1nn(C)cc1N(Cc1ccc(C(F)(F)F)cn1)C(=O)c1cc2c(cc1F)nc(N)c1cnc(C)n12 [Example 109]
0.1 to 1 µM | 1 to 10 µM |  |  | Cc1ncc2c(N)nc3cc(F)c(C(=O)N(Cc4ccc(C(F)(F)F)cn4)C4CCOC4)cc3n12 (centres unmarked) [Example 156]
< 0.1 µM | 1 to 10 µM |  |  | CCN(Cc1ccc(C(F)(F)F)cn1)C(=O)c1cc2c(cc1F)nc(N)c1cnc(C)n12 [Example 18]
< 0.1 µM | 1 to 10 µM |  |  | Cc1ncn2c1c(N)nc1cc(F)c(C(=O)N3C(c4ccc(C#N)cn4)COC[C@H]3C)cc12 (some centres unmarked) [Example 108]
0.1 to 1 µM | 1 to 10 µM |  |  | CCN(Cc1ccc(C(F)(F)F)cn1)C(=O)c1ccc2nc(N)c3c(C)nc(C)n3c2c1 [Example 15, 4-Amino-N-ethyl-1,3-dimethyl-N-((5-trifluoromethyl)pyridin-2-ylmethyl) imidazolo[1,5-a]quinoxalin-8-carboxamide]
< 0.1 µM | 1 to 10 µM |  |  | Cc1ncc2c(N)nc3cc(F)c(C(=O)N4C(C)COCC4c4ccc(C(F)(F)F)cn4)cc3n12 (centres unmarked) [Example 273]
< 0.1 µM | 0.1 to 1 µM |  |  | COc1ncccc1N(Cc1ccc(C(F)(F)F)cn1)C(=O)c1cc2c(cc1F)nc(N)c1cnc(C)n12 [Example 145]
< 0.1 µM | 0.1 to 1 µM |  |  | COc1ccc(CN(C(=O)c2cc3c(cc2F)nc(N)c2c(C)ncn23)c2cn(C)nc2C)nn1 [Example 197]
< 0.1 µM | < 0.1 µM |  |  | CCOc1ccc(CN(C(=O)c2cc3c(cc2F)nc(N)c2c(C)ncn23)c2cn(C)nc2C)nc1 [Example 168]
< 0.1 µM | 0.1 to 1 µM |  |  | Cc1ncc2c(N)nc3cc(F)c(C(=O)N(Cc4ncc(C(F)(F)F)cc4F)c4ccnn4C)cc3n12 [Example 228]
< 0.1 µM | 0.1 to 1 µM |  |  | Cc1ncc2c(N)nc3cc(F)c(C(=O)N(Cc4ccc(C(F)(F)F)cn4)c4ccnn4C)cc3n12 [Example 200]
0.1 to 1 µM | 1 to 10 µM |  |  | Cc1ncc2c(N)nc3cc(F)c(C(=O)N(Cc4cn5ccccc5n4)C(C)C(F)(F)F)cc3n12 (centres unmarked) [Example 243]

IC50 ([1]; HCT116-MTAP null, 144 h) | IC50 (HCT116 MTAP WT cells; Homo sapiens, HCT-116, 144 h) | IC50 [1] | IC50 (HCT116 MTAP WT cells) | SMILES
0.1 to 1 µM | 1 to 10 µM |  |  | CCn1cc(N(Cc2ccc(C(F)(F)F)nn2)C(=O)c2cc3c(cc2F)nc(N)c2cnc(C)n23)c(C)n1 [Example 202]
< 0.1 µM | 1 to 10 µM |  |  | COCCOc1ccc(C2COCC(C)N2C(=O)c2cc3c(cc2F)nc(N)c2c(C)ncn23)nc1 (centres unmarked) [Example 105]
< 0.1 µM | 1 to 10 µM |  |  | Cc1nn(C)cc1N(Cc1ccc(OC2CC2)cn1)C(=O)c1cc2c(cc1F)nc(N)c1cnc(C)n12 [Example 144]
< 0.1 µM | 1 to 10 µM |  |  | COc1ccc(N(Cc2ccc(OC3CC3)cn2)C(=O)c2cc3c(cc2F)nc(N)c2cnc(C)n23)cn1 [Example 146]
 |  | < 0.1 µM | 1 to 10 µM | Cc1ncn2c1c(N)nc1cc(F)c(C(=O)N3C(C)COCC3c3ccc(C(F)(F)F)cn3)cc12 (centres unmarked) [Example 155]
< 0.1 µM | 1 to 10 µM |  |  | Cc1c(N(Cc2ccc(C(F)(F)F)cn2)C(=O)c2cc3c(cc2F)nc(N)c2cnc(C)n23)cnn1CC(F)F [Example 180]
< 0.1 µM | 1 to 10 µM |  |  | Cc1ncc2c(N)nc3cc(F)c(C(=O)N4C(C)COCC4c4cnc(C(F)(F)F)s4)cc3n12 (centres unmarked) [Example 89]
< 0.1 µM | 1 to 10 µM |  |  | Cc1ncn2c1c(N)nc1ccc(C(=O)N(Cc3nc(-c4ncccn4)cs3)CC(C)C)cc12 [Example 305]
0.1 to 1 µM | 1 to 10 µM |  |  | Cc1ncc2c(N)nc3cc(F)c(C(=O)N(Cc4ccc(C(F)(F)F)cn4)c4cn[nH]c4)cc3n12 [Example 88]
0.1 to 1 µM | 1 to 10 µM |  |  | COc1cc(N(Cc2ccc(C(F)(F)F)cn2)C(=O)c2cc3c(cc2F)nc(N)c2cnc(C)n23)nn1C [Example 122]
< 0.1 µM | 1 to 10 µM |  |  | Cc1ncc2c(N)nc3cc(F)c(C(=O)N(Cc4cnn(-c5ccccn5)c4)c4ccnn4C)cc3n12 [Example 234]
< 0.1 µM | 1 to 10 µM |  |  | Cc1ncc2c(N)nc3cc(F)c(C(=O)N(Cc4cccc(C(F)(F)F)n4)c4ccnn4C)cc3n12 [Example 326]
0.1 to 1 µM | 1 to 10 µM |  |  | Cc1ncc2c(N)nc3cnc(C(=O)N(Cc4ccc(C(F)(F)F)cn4)C(C)c4ncccn4)cc3n12 (centres unmarked) [Example 16]
< 0.1 µM | 1 to 10 µM |  |  | COc1ccc(N(Cc2ccc(C(F)(F)F)cn2)C(=O)c2cc3c(cc2F)nc(N)c2cnc(C)n23)cn1 [Example 124]
< 0.1 µM | 1 to 10 µM |  |  | CCn1cc(N(Cc2ccc(OC3CC3)cn2)C(=O)c2cc3c(cc2F)nc(N)c2cnc(C)n23)c(C)n1 [Example 171]
0.1 to 1 µM | 1 to 10 µM |  |  | Cc1cn2c(n1)c(N)nc1ccc(C(=O)N3[C@H](C)COC[C@@H]3c3cn4ccccc4n3)cc12 [Example 29]
< 0.1 µM | 1 to 10 µM |  |  | Cc1ncc2c(N)nc3cc(F)c(C(=O)N(Cc4ccc(C(F)(F)F)cn4)c4cnn(C)n4)cc3n12 [Example 83]
0.1 to 1 µM | 1 to 10 µM |  |  | Cc1ncc2c(N)nc3cc(F)c(C(=O)N(Cc4ccc(C(F)(F)F)cn4)C4CCOCC4)cc3n12 [Example 149]
< 0.1 µM | 0.1 to 1 µM |  |  | Cc1nn(C)cc1N(Cc1ccc(OC2CC2)cn1)C(=O)c1cc2c(cn1)nc(N)c1cnc(C)n12 [Example 189]
0.1 to 1 µM | 1 to 10 µM |  |  | Cc1nn(C)cc1N(Cc1ncc(C(F)(F)F)cn1)C(=O)c1cc2c(cc1F)nc(N)c1cnc(C)n12 [Example 140]
< 0.1 µM | 1 to 10 µM |  |  | Cc1nn(CCO)cc1N(Cc1ccc(C(F)(F)F)cn1)C(=O)c1cc2c(cc1F)nc(N)c1c(C)ncn12 [Example 165]

From patent US20250376473A1, “PRMTS INHIBITOR AND USE THEREOF” (Cytosinlab Therapeutics Co., Ltd., priority 2022, published 2025)
